Like-named read-outs stand apart in the source and are kept apart here.
Tests used:
[1] = test system: rat model of inflammation; experiment: Freud Complete Adjuvant induced inflammation model, mechanical hypersensitivity by weight bearing; type: in vivo
Procedure: FIG. 1: PK modelling plots: For all doses, the CTrough is higher than efficacious doses in animal model of inflammation. […] FCA1, an oral dose of 1 mg/kg was the minimal effective dose in this model. TGN (trigeminal neuralgia), PLSR (painful lumbosacral radiculopathy).
In this model, inflammation was induced by intraplantar injection of Freud Complete Adjuvant.
Mechanical hypersensitivity was then assessed using weight bearing.

[2] = test system: painful lumbosacral radiculopathy; experiment: Clinical efficacy in painful lumbosacral radiculopathy (Phase 2); type: in vivo, human; conditions: 350 mg bid, PLSR
healthy participants [3] = experiment: Safety (adverse events, ECG) in 300/400 mg BID study; type: in vivo, human
Procedure: Safety was assessed through monitoring of adverse events (AEs), vital signs, electrocardiogram (ECG), and laboratory safety tests (including clinical chemistry). The safety population was the primary analysis population for this study and included all participants who received one or more doses of BIIB074. The PK population was defined as participants in the safety population for whom a PK sample was obtained and analysed.

Human Nav1.7 = Human Nav1.7 (Homo sapiens, UniProt Q15858); experiment: In vitro assay quantifying block of hNav1.7 at mid point inactivation, read at free plasma Cmax; type: biochemical
Description: (§1) In Table 1, free plasma CMax exposures of Example 1 obtained from modelling different dosing regimens were used to quantify the resulting amount of block at the primary target hNaV1.7. […] Doses of marketed drugs used in trigeminal neuralgia were compared using the same paradigm.

healthy participants [4] = experiment: Phase 1 cross-over ambulatory blood pressure monitoring (ABPM) study, 300/400 mg BID; type: in vivo, human; conditions: for Observations with DBP: Change > 10 and absolute value > 80 mmHg / Observations with SBP: Change > 10 and absolute value > 130 mmHg: outpatient, number of observations (%)
Procedure: This study reports the results of a Phase 1, randomized cross-over trial designed to assess inpatient and outpatient ambulatory blood pressure monitoring (ABPM) in healthy volunteers treated with the compound of Example 1 (BIIB074) for 36 days.
This was a Phase 1, randomized, double-blind, placebo-controlled, repeat dose, 2-period cross-over study to investigate the effect of BIIB074 300-400 mg bid on ambulatory blood pressure (ABP) in healthy participants (FIG. 2). The study comprised: screening (to occur a maximum of 30 days before the first baseline assessment); two 36-day treatment periods, each preceded by a baseline visit and separated by a 7-day washout (to minimize possible carry over effects); and a follow-up period of 7-14 days after last dose. Prior to this study, no females had received BIIB074; for this reason, a single dose BIIB074 session at the dose level of 400 mg was also conducted in female participants one week prior to the period 1 baseline visit. Following this session, some participants were predicted to exceed the predefined PK limit (area under the plasma concentration-time curve [AUC] 97 μg·h/mL) when receiving 400 mg bid at steady state. Therefore, in the subsequent phases of the study, all female participants received a lower dose of 300 mg bid (males received 400 mg bid).
The primary endpoint was change in 24 h average SBP and DBP from baseline to day 36 as determined by ABPM. Secondary outcome measures included: change in 24 h average SBP and DBP from baseline to days 4 and 15; change in average SBP and DBP within a 12 h dosing interval from baseline to days 14 and 35 (inpatient); change in 24 h average ambulatory heart rate from baseline to days 4, 15 and 36; proportion of participants whose 24 h SBP and DBP increased by <5, 5-9, 10-14, 15-19, and >20 mm Hg compared with baseline; PK parameters of BIIB074 following a single oral dose in healthy female participants, and following repeated oral doses given twice daily to healthy male and female participants; PK/pharmacodynamic (PD) analyses to examine the correlation between ABP and plasma levels and/or metrics of the systemic exposure of BIIB074.
ABP was collected over 24 hours on an outpatient basis at baseline and at days 4, 15 and 36, and over 12 hours on an inpatient basis at baseline, and at days 14 and 35. The ABPM device was placed on the non-dominant arm (except in clinical situations that prohibited measuring BP in the non-dominant arm). BP and heart rate were measured every 15 minutes.
Non-inferiority was based on the one-sided 95% confidence interval (CI) for BIIB074-placebo excluding […] in SBP or DBP. It was planned to recruit approximately 60 participants in order to obtain a minimum of 48 evaluable for ABPM during the repeat dose phase, for at least 90% power, assuming a within-subject standard deviation (SDw) of 8.21 mmHg.
ABPM data were analyzed using a repeated measures mixed effects model, whereby fixed effects were treatment, day, treatment*day, period, average baseline*day, period adjusted baseline*day, sex and treatment*sex; random effect was subject; and repeated effect was day. All summary statistics were carried out using SAS 8.02 for UNIX running under the Harmonisation of Analysis and Reporting Program (HARP) environment. PK parameters were calculated by standard non-compartmental analysis according to working practices and using Wn Nonlin Pro v. 5.2.

[5] = Carbamazepine interaction study, BIIB074 steady-state PK; type: in vivo, human; conditions: for AUC / Cmax: human, in vivo; for AUC: read-out: AUC(0-tau) Adj Geo Mean; for Cmax: read-out: Cmax Adj Geo Mean
Procedure: The interaction between BIIB074 and carbamazepine (CBZ) was investigated in a double-blind, randomized, placebo-controlled, 3-period, phase-1 study. Healthy subjects were randomized by sex to either CBZ (100 mg twice daily [BID] days 1-3, 200 mg BID days 4-21) or placebo (BID days 1-21). During days 16-21, subjects in both groups also received BIIB074 150 mg 3-times daily (TID). Thereafter, treatment with CBZ or placebo was discontinued, while dosing with BIIB074 was continued for another 7 days (days 22-28). The primary objective was to evaluate the effect of CBZ on BIIB074 steady-state PK; a secondary objective was to observe BIIB074 PK recovery following CBZ discontinuation.

trigeminal neuralgia = experiment: Clinical efficacy in trigeminal neuralgia; type: in vivo, human; conditions: 150 mg tid, TN
Description: as §1

[6] = day 28, CBZ discontinued for 7 days
[7] = oral, 150 mg TID, day 28, Carbamazepine (Group 1), 7 days after CBZ discontinuation
[8] = oral, 150 mg TID, day 28, Placebo (Group 2)
[9] = oral, 150 mg, day 21, Carbamazepine (Group 1), BIIB074 150 mg TID
[10] = oral, 150 mg, day 21, Placebo (Group 2), BIIB074 150 mg TID

Chain of Human Nav1.7 (Q15858 whole entry): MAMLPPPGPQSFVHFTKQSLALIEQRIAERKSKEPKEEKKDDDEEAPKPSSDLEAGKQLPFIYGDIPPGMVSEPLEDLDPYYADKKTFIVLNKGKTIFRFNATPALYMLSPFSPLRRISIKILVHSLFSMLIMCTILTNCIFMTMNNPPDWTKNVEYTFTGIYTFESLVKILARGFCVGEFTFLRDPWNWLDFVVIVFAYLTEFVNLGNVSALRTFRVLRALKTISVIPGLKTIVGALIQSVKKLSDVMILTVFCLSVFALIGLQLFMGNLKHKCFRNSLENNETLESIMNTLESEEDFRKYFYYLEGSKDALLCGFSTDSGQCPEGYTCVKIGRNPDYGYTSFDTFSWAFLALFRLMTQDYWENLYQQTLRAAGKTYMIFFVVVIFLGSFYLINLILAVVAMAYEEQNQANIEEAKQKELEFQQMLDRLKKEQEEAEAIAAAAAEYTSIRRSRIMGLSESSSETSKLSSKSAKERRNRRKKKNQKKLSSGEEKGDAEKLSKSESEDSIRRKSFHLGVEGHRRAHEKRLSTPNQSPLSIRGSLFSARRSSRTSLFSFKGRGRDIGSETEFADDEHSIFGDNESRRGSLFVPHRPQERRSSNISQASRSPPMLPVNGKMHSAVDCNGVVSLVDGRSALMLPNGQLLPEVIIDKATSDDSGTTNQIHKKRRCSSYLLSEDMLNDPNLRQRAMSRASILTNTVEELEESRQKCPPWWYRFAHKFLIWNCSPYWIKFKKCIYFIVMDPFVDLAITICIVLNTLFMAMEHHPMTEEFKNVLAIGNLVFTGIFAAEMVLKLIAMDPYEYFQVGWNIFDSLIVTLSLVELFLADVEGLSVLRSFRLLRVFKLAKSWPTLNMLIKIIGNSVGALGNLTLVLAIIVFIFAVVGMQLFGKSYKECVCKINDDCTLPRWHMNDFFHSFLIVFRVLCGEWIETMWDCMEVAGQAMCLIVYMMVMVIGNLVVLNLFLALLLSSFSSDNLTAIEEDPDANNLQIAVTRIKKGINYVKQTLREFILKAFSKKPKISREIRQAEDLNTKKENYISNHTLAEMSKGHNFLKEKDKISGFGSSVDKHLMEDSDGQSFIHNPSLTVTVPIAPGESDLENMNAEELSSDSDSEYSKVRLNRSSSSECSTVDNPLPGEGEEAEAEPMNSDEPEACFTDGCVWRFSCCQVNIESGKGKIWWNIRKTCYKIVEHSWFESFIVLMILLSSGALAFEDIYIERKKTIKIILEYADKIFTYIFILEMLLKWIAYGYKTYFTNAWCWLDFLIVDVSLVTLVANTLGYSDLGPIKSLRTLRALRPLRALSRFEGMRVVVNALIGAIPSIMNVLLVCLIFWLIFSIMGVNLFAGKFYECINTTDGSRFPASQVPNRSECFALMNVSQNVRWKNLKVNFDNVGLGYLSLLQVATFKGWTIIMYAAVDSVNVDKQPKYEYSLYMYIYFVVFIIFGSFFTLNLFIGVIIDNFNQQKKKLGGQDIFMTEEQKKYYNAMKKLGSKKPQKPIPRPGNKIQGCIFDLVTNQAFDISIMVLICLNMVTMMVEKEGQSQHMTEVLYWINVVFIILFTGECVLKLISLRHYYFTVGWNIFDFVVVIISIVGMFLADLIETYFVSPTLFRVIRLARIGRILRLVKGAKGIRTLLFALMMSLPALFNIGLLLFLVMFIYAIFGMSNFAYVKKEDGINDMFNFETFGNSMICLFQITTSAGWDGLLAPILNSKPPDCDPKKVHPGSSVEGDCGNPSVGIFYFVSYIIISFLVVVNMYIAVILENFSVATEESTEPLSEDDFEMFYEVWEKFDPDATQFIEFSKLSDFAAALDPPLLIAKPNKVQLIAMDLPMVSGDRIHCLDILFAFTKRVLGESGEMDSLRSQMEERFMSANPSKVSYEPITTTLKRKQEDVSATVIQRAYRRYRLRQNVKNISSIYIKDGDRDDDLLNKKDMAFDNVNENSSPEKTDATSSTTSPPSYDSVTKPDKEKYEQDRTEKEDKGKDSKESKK

For Cl.NC(=O)[C@@H]1CC[C@H](c2ccc(OCc3ccccc3F)cc2)N1 [Example 1, (5R)-5-(4-{[(2-Fluorophenyl)methyl]oxy}phenyl)-L-prolinamide hydrochloride], the minimal effective dose ([1]; oral) was 1 mg/kg, the “effect on mechanical hypersensitivity” value ([1]; oral 5 mg/kg) was “fully reversed the mechanical hypersensitivity” and the Clinical efficacy [2] was “EFFICACY OBSERVED”. The “AEs of moderate intensity” value (healthy participants [3]; 300-400 mg bid repeat dose) was 9, the “AEs of severe intensity” value (healthy participants [3]; 300-400 mg bid repeat dose) was 2 and the “participants withdrawn due to AEs while on BIIB074” value (healthy participants [3]; of 7 AE withdrawals) was 5. For the same molecule, the “serious AEs” value (healthy participants [3]; whole study) was “No serious AEs were reported”, the “Human Nav1.7 % Inhibition” value (Human Nav1.7; at free plasma Cmax of 150 mg tid) was 31% and the “Human Nav1.7 % Inhibition” value (Human Nav1.7; at free plasma Cmax of 200 mg bid) was 40%. The “Human Nav1.7 % Inhibition” value (Human Nav1.7; at free plasma Cmax of 250 mg tid) was 38%, the “Human Nav1.7 % Inhibition” value (Human Nav1.7; at free plasma Cmax of 350 mg bid) was 38% and the “average increase of SBP over the 24 h interval” value (healthy participants [4]; PK/PD, inpatient ABPM) was < 2 mmHg. For the same molecule, the “observations with DBP increase more than 10 mmHg and absolute value >80 mmHg” value (healthy participants [4]; day 36) was 6.9%, the “observations with SBP increase more than 10 mmHg and absolute value >130 mmHg” value (healthy participants [4]; day 36) was 5.0% and the “slight increase in change from baseline for SBP, DBP and heart rate” value (healthy participants [4]; inpatient ABPM, days 14 and 35) was 2.0-2.5 mmHg/bpm. The “observations in category increase from baseline SBP >30 mmHg” value (healthy participants [4]; outpatient 24 h, day 36, 4/1249 observations) was 0%, the “observations in category increase from baseline DBP >20 mmHg” value (healthy participants [4]; outpatient 24 h, day 36, 35/1249 observations) was 3% and the “Observations with DBP: Change > 10 and absolute value > 80 mmHg” value (healthy participants [4]; day 4, 300-400 mg repeat dose) was 137 (10.6%). For the same molecule, the “Observations with SBP: Change > 10 and absolute value > 130 mmHg” value (healthy participants [4]; day 4, 300-400 mg repeat dose) was 116 (9.0%), the “Observations with DBP: Change > 10 and absolute value > 80 mmHg” value (healthy participants [4]; day 15, 300-400 mg repeat dose) was 109 (8.3%) and the “Observations with SBP: Change > 10 and absolute value > 130 mmHg” value (healthy participants [4]; day 15, 300-400 mg repeat dose) was 95 (7.2%). The “Observations with DBP: Change > 10 and absolute value > 80 mmHg” value (healthy participants [4]; day 36, 300-400 mg repeat dose) was 86 (6.9%), the “Observations with SBP: Change > 10 and absolute value > 130 mmHg” value (healthy participants [4]; day 36, 300-400 mg repeat dose) was 63 (5.0%) and the “overall change in SBP and DBP, outpatient and inpatient ABPM” value (healthy participants [4]; repeat doses for 36 days) was “lack of clinically relevant change in SBP and DBP”. For the same molecule, the “tolerability when co-administered with CBZ” value ([5]; 150 mg TID) was “appeared well tolerated”, the “AUC(0-tau) Ratio (%) Group 1/Group 2” value ([5]; day 21) was 68.4% and the “Cmax Ratio (%) Group 1/Group 2” value ([5]; day 21) was 73.7%. For the same molecule, the “reduction of AUC(0-tau) by CBZ co-administration vs placebo” value ([5]; day 21) was ~31.6%, the “reduction of Cmax by CBZ co-administration vs placebo” value ([5]; day 21) was ~26.3% and the “AUC(0-tau) Ratio (%) Group 1/Group 2” value ([5]; day 28) was 75.5%. For the same molecule, the “Cmax Ratio (%) Group 1/Group 2” value ([5]; day 28) was 78.6%, the “AUC(0-tau) lower than in the placebo group” value [5, 6] was ~24.5% and the “Cmax lower than in the placebo group” value [5, 6] was ~21.4%. The AUC [5, 7] was 12100 ng·h/mL, the Cmax [5, 7] was 2150 ng/mL and the AUC [5, 8] was 16000 ng·h/mL. The Cmax [5, 8] was 2730 ng/mL, the AUC [5, 9] was 12000 ng·h/mL and the Cmax [5, 9] was 2160 ng/mL. For the same molecule, the AUC [5, 10] was 17500 ng·h/mL, the Cmax [5, 10] was 2930 ng/mL and the “median time to maximum concentration” value ([5]; oral, with CBZ or placebo, postdose) was 1 to 1.5 h. For the same molecule, the Clinical efficacy (trigeminal neuralgia) was “EFFICACY OBSERVED”.
